Data from patent US20090197906A1, “REVERSION OF MALIGNANT PHENOTYPE WITH 9-HYDROXY ELLIPTICINE DERIVATIVES” (priority 2006, published 2009).
Where two headings read alike, the source gives them in different places.

Assays:
HT144 = test: MTT cell proliferation assay; format: cell-based, human; conditions: HT144, 3 days; read-out: Cytotoxic effect (MTT) IC50
Description: (§1) Growth studies were performed using the [3-(4,5 dimethylthiazol-2-yl)-2,5-diphenyl-2H-tetrazolium bromide] (Sigma) calorimetric assay.
(§2) About 1500 to 5000 cells, according to the cell line, were seeded in a 96-well culture plate 24 hours before adding increasing concentrations of BA016DD537 or BA016FZ539. The plate was incubated at 37° C. for 3 days. 10 μl MTT stock solution (5 mg/ml in phosphate buffer saline) was added to 90 μl of complete medium in each well, the incubation was continued for 3 h at 37° C. 100 μl of lysis buffer (10% sodium dodecyl sulfate, 1% HCl 1N; pH 4.7) was added to each well, and the plate was incubated overnight. The absorbance was determined using an Integrated EIA Management System (Labsystem) at a wavelength of 570 nm. The proliferation rates were calculated from the OD readings using the untreated cells as 100%.

C9 = test: MTT cell proliferation assay; format: cell-based, human; conditions: C9, 3 days; read-out: Cytotoxic effect (MTT) IC50
Description: as §1, §2

SKMEL28 = test: MTT cell proliferation assay; format: cell-based, human; conditions: SKMEL28, 3 days; read-out: Cytotoxic effect (MTT) IC50
Description: as §1, §2

Mia Paca-2 = test: SRB (sulforhodamine B) cell proliferation assay; format: cell-based, human
Description: (§3) After an incubation period, cell monolayers are fixed with 10% (wt/vol) trichloroacetic acid and stained for 30 min, after which the excess dye is removed by washing repeatedly with 1% (vol/vol) acetic acid. The protein-bound dye is dissolved in 10 mM Tris base solution for optic density determination (OD) at 510 nm using a microplate reader.
(§4) The proliferation rates were calculated from the OD readings using the untreated cells as 100%.
(§5) The effects BA016FZ539 on the growth of MIA PaCa-2 and PANC-1 pancreatic cells were tested over a range of concentrations from 500 μM to 0.16 μM and measured by using the SRB calorimetric assay.
(§6) About 5000 MIA PaCa-2 or PANC-1 cells were seeded in a 96-well culture plate while adding increasing concentrations of BA016FZ539.
(§7) Growth studies were performed using both MTT and SRB calorimetric assay (Sigma). About 1500 B16F10 or 3000 pancreatic cells (MIA PaCa-2 and PANC1) were seeded in a 96-well culture plate before adding increasing concentrations of monomesylate or bimesylate.
(§8) The plates were incubated at 37° C. for 3 days and then were treated depending on SRB or MTT protocols (see material and methods).
(§9) In these two cases, the proliferation rates were calculated from the OD readings using the untreated cells as 100%.

PANC-1 = test: SRB (sulforhodamine B) cell proliferation assay; format: cell-based, human
Description: as §3, §4, §5, §6, §7, §8, §9

MIA PaCa-2 cells = test: morphological changes under microscopic observation (phenotype reversal); format: cell-based, human; conditions: 4 μM for 3 days
Text: (§10) Changes in configuration and number of pancreatic cell lines were observed under microscopic observation (FIG. 5).

PANC-1 cell line = test: as above; format: cell-based, human
Text: as §10

[1] = test system: B16BL6 melanoma cell line; test: MTT cell viability, combination with retinoids; format: cell-based
Description: The ex vivo cell viability inhibition by BA016DD537 in the presence of the retinoids 13CRA and ATRA was tested against B16BL6 melanoma cell line using the 3-(4,5 dimethylthiazol-2-yl)-2,5-diphenyl-2H-tetrazolium bromide (MTT) calorimetric assay.
About 1000 cells were seeded in a 96-well culture plate 24 hours before adding increasing concentrations of BA016DD537, from 1 pM to 100 pM, in the absence or in the presence of 10 nM of retinoids. The plate was incubated at 37° C. for 3 days. 10 μl MTT stock solution (5 mg/ml in phosphate buffer saline) was added to 90 μl of complete medium in each well, the incubation was continued for 3 h at 37° C. 100 μl of lysis buffer (20% sodium dodecyl sulfate, 10 mM HCl, 1×PBS) was added to each well, and the plate was incubated overnight. The absorbance was determined using an Integrated EIA Management System (Labsystem) at a wavelength of 570 nm.

[2] = test system: actin in NIH 3T3 EF extract; test: fluorescence anisotropy assay of actin dynamics in cell extract; format: biochemical; conditions: for k (rate constant of F-actin elongation) / Δ mA (anisotropy enhancement, steady state F-actin): malignant NIH 3T3 EF extract
Description: Actin dynamics is known to be impaired in tumor cells with a subsequent decrease of F-actin to G-actin ratio. Actin dynamics has been quantified in tumor cell extracts using the fluorescence anisotropy assay which gains access to rate constant of F-actin elongation (k) and steady state concentration of F-actin (Δ mA).
All reactions were carried out at 22° C. and fluorescence anisotropy signal was recovered at 520 nm with excitation at 490 nm in a Beacon 2000 (Panvera). Alexa 488 actin (Molecular Probes) was centrifuged at 35 000 rpm for 2 h at 4° C. to sediment residual actin polymers in a Beckman L5-50B ultracentrifuge. […] 80% of the supernatant was withdrawn; the concentration was defined through fluorescence measurements (excitation at 490 nm and signal recovering at 520 nm). The ultracentrifuged actin concentration was calculated using the non ultracentrifuged Alexa 488 actin as a standard. The supernatant was aliquoted, frozen in liquid nitrogen and stored at −80° C.
Before experiment, an aliquot of ultracentrifuged Alexa 488 actin was diluted to a concentration of […] in G buffer (5 mM Tris pH 8.1, 2 mM CaCl2, 0.2 mM DTT, 0.2 mM ATP). 3 μl of diluted Alexa 488 actin was mixed in 168 μl of G buffer and actin monomers anisotropy was measured before the addition of 4 μl of polymerisation buffer (2.5 M KCl, 50 mM MgCl2, 25 mM ATP), 5 μl of G buffer in the presence or in the absence of the chemical molecule and 20 μl cellular extract of normal NIH 3T3 cells or malignant NIH 3T3 EF cells at 2 mg/ml. The final concentration of Alexa 488 actin was 4 nM. The ratio of unlabelled to labelled actin was about 140/4 nM. Measurements were made each 10 sec for 200 sec. Actin monomers anisotropy value was subtracted, yielding the anisotropy enhancement (Δ mA). The data were fitted with the equation Y=Ymax. [1−exp(−K.X)]. The curves start at zero and ascend to Ymax that corresponds to the steady state anisotropy value (Δ mA eq), with a rate constant K. Y is anisotropy values of which monomers anisotropy is subtracted and X is the time.

CS(=O)(=O)[O-].Cc1c2cc[n+](CCN3CCCCC3)cc2c(C)c2c1[nH]c1ccc(O)cc12 [BA016FZ539, 2-(betapiperidino-2-ethyl)-9-hydroxyellipticinium methanesulfonate]
IC50 (HT144): 9 µM
IC50 (C9): 2.1 µM
IC50 (SKMEL28): 10.7 µM
IC50 (Mia Paca-2; MIA PaCA-2, viability 72 h, mean +/− SEM (Example 9), read-out: IC50 (μM) SRB): 10.2 µM
IC50 (Mia Paca-2; Mia Paca-2 (Example 11), read-out: IC50 (SRB Test-72 h)): 5.6 µM
IC50 (PANC-1; PANC-1 (Example 11), read-out: IC50 (SRB Test-72 h)): 50.4 µM
IC50 (PANC-1; PANC-1, viability 72 h, mean +/− SEM (Example 9), read-out: IC50 (μM) SRB): 20.7 µM
reversal of the transformed phenotype (cell morphology) (MIA PaCa-2 cells): reversal from the transformed phenotype (FIG. 5, A) to a normal phenotype
reversal of the transformed phenotype (cell morphology) (PANC-1 cell line): not in PANC-1 cell line

Cc1c2cc[n+](CCN3CCCCC3)cc2c(C)c2c1[nH]c1ccc(O)cc12.[Cl-] [BA016DD537, 2-(β-piperidinoethyl)-9-hydroxyellipticinium chloride]
decrease of dose when used in combination with retinoids for the same results ([1]; 100 nM alone vs 1 pM in the presence of ATRA 10 nM): 100 000 fold
tumoral cell viability inhibition (MTT) ([1]; lower doses in the presence of 10 nM retinoids (13CRA, ATRA)): increased tumoral cell viability inhibition
effect on actin-F elongation rate constant and actin-F steady state value ([2]; NIH 3T3 EF cytosolic fractions): increases the actin-F elongation rate constant and the actin-F steady state value
k (rate constant of F-actin elongation) ([2]; compound at 100 nM): 0.1636 s⁻¹
Δ mA (anisotropy enhancement, steady state F-actin) ([2]; compound at 100 nM): 52.38
k (rate constant of F-actin elongation) ([2]; compound at 200 nM): 0.1737 s⁻¹
Δ mA (anisotropy enhancement, steady state F-actin) ([2]; compound at 200 nM): 61.17
